According to patent publication US5104888A, “Thiazolidine derivatives, their preparation and use” (Sankyo Company, Limited, priority 1985, dated 1992):

Columns and labels:
[1] = target: T1, Aldose reductase (Bos taurus, UniProt P16116); test: Effect on Aldose Reductase (inhibition of enzyme activity, photometric); type: biochemical; settings: 1×10^-5 M, aldose reductase partially purified from bovine lenses; read-out: Percent Inhibition of aldose reductase
T1 construct: Aldose reductase was separated and partially purified from bovine lenses; from tissue; host or cells: bovine lens
Experimental: Aldose reductase was separated and partially purified from bovine lenses by the method of Hayman and Kinoshita [J. Biol. Chem., 240, 877 (1965)]. Enzyme activities were photometrically determined by the method of Varma et al. [Biochem, Pharmac., 25, 2505 (1976)].
The inhibition of aldose reductase activity was determined employing each test compound in a concentration of 1×10^-5 M, and the results are as shown in Table 30.
As a control, the known compound, 5-[4-(1-methylcyclohexylmethoxy)benzyl]thiazolidine-2,4-dione ("Cpd. A") was tested by the same method and the result is also shown in Table 30: […]

[2] = tested on: male mice of the ddY strain; test: Toxicity (acute oral, one-week observation); type: in vivo
Experimental: The test animals used were male mice of the ddY strain. The animals were employed in groups of 3. The animals of each group were administered orally with a single test compound in a dose of 300 mg/kg body weight. The compounds employed were those prepared as described in Examples 3, 4, 5 and 13.

[3] = oral, 300 mg/kg body weight, male ddY mice, groups of 3, 1 week

inhibition at 10 µM [1] [%] | Compound | abnormalities attributable to the test compounds during observation [2, 3] | survival at the end of the 1 week observation period [2, 3] | further results
16.2 | CC1(COc2ccc(CC3SC(=O)NC3=O)cc2)CCCCC1 (stereo not drawn) [Cpd. A, 5-[4-(1-methylcyclohexylmethoxy)benzyl]thiazolidine-2,4-dione, reference compound] |  |  | 
 | CCCCCCCCC1(COc2ccc(CC3SC(=O)NC3=O)cc2)CCc2c(C)c(O)c(C)c(C)c2O1 (stereo not drawn) [Example 3, 5-[4-(6-Hydroxy-5,7,8-trimethyl-2-octylchroman-2-yl-methoxy)benzyl]thiazolidine-2,4-dione] | no abnormalities | All animals were alive | 
 | CC(=O)Oc1cc2c(cc1C(C)(C)CC(C)(C)C)OC(C)(COc1ccc(CC3SC(=O)NC3=O)cc1)CC2 (stereo not drawn) [Example 4, 5-[4-(6-Acetoxy-2-methyl-7-(1,1,3,3-tetramethylbutyl)-chroman-2-ylmethoxy)benzyl]thiazolidine-2,4dione] | no abnormalities | All animals were alive | 
 | CC(C)(C)CC(C)(C)c1cc2c(cc1O)CCC(C)(COc1ccc(CC3SC(=O)NC3=O)cc1)O2 (stereo not drawn) [Example 5, 5-{4-[6Hydroxy-2-methyl-7-(1,1,3,3-tetramethylbutyl)-chroman-2-ylmethoxy]benzyl}thiazolidine-2,4-dione] | no abnormalities | All animals were alive | 
51.6 | Cc1c(C)c2c(c(C)c1OCC(=O)O)CCC(C)(COc1ccc(CC3SC(=O)NC3=O)cc1)O2 (stereo not drawn) [Example 58, α-{2-[4-(2,4-Dioxothiazolidin-5-ylmethyl)phenoxymethyl]-2,5,7,8-tetramethylchroman-6yloxy}acetic acid] |  |  | 
79.5 | Cc1c(C)c2c(c(C)c1OCC(=O)O)C(=O)CC(C)(COc1ccc(CC3SC(=O)NC3=O)cc1)O2 (stereo not drawn) [Example 59, α-{2-[4-(2,4-Dioxothiazolidin-5-ylmethyl)-phenoxymethyl]-2,5,7,8-tetramethyl-4-oxochroman-6-yloxy}acetic acid] |  |  | 

Compound | inhibition at 10 µM [1] [%] | abnormalities attributable to the test compounds during observation [2, 3] | survival at the end of the 1 week observation period [2, 3] | further results
Cc1c(C)c2c(c(C)c1O)/C(=N/O)CC(C)(COc1ccc(CC3SC(=O)NC3=O)cc1)O2 (stereo not drawn) [Example 13, 5-{4-[6-Hydroxy-4-(E)-hydroxyimino-2,5,7,8-tetramethylchroman-2-ylmethoxy]benzyl}thiazolidine-2,4-dione] | 55.5 |  |  | abnormalities attributable to the test compounds during observation ([2]; mouse, in vivo, po, 300 mg/kg): no abnormalities; survival at the end of the 1 week observation period ([2]; mouse, in vivo, po, 300 mg/kg): All animals were alive
